The nature of this series: Plasma pharmacokinetics. Particulars: rat plasma, any confection treatment (CDK, CHS, CMP). The format is in vivo, Sprague-Dawley rats.

Take `Oc1cc(O)c2c(c1)OC(c1ccc(O)c(O)c1)C(O)C2` (racemic) [(±)-C, (±)-catechin]: the “Detection in plasma (HPLC-MS)” value was “No intact (±)-C, (±)-C/EC sulfated metabolites or unconjugated O-Me-(±)-C/EC metabolites were detected in the plasma”. As for `Oc1cc(O)c2c(c1)O[C@H](c1ccc(O)c(O)c1)[C@H](O)C2` (racemic) [(±)-EC, (−)-epicatechin], the “Detection in plasma (HPLC-MS)” value is “minor component in blood”.

The values are drawn from article PMC2892903 (Journal of agricultural and food chemistry, 2010).
